# Data published in US20160256515A1, “COMPOSITIONS AND METHODS FOR PREDICTION AND TREATMENT OF HUMAN CYTOMEGALOVIRUS INFECTIONS” (THE JOHNS HOPKINS UNIVERSITY, priority 2013, published 2016).
# Like-named read-outs stand apart in the source and are kept apart here.
# Experiments:
# IFN-β = IFN-β response (qPCR, ELISA) after pretreatment and CMV infection; format: cell-based, human
# Source text: RNA isolation and real time quantitative reverse transcriptase (qRT) PCR: Total RNA was isolated from cultured cells using RNeasy Mini kit (Qiagen, Georgetown, Md.) according to manufacturer's instructions. RevertAid first strand cDNA synthesis kit (Fermentas life sciences, Cromwell Park, Md.) was used to synthesize first strand cDNA from total RNA using oligo-dT primers. Negative reverse-transcriptase (−RT) reactions were included to ensure the specificity of qRT-PCR reactions. Synthesis of first strand cDNA from mRNA template was carried out at 42° C. for 1 h. Quantitative RT-PCR (qRT-PCR) was performed using specific primers and SYBER green (Fermentas life science) with two-step cycling protocol (95° C. for 15 s, 60° C. for 1 min). Reactions were performed in triplicates and GAPDH was used as internal control. mRNA levels in HCMV-infected cells were normalized to the mRNA produced in non-infected HFFs in addition to the internal normalization of each sample to GAPDH. The primers and gene targets appear in Table 1.
# ELISA: Human interferon β (IFN-β) specific ELISA kit (PBL Interferon Source) was used to measure levels of secreted IFN-β from HFF-control and HFF-NOD2 overexpressing cells according to manufacturer's instructions.
# human CMV (HCMV) = experiment: CMV plaque numbers in human fibroblasts after pre-treatment; format: cell-based, human cytomegalovirus; conditions: pre-treatment of human fibroblasts followed by CMV infection
# NOD2 mRNA = format: cell-based, human; conditions: non-infected HFFs, MDP 10 μg/ml
Structure (SMILES),interferon response (IFN-β) (IFN-β; pretreatment),"mRNA and protein expression of IFN-β (IFN-β; pretreatment followed by CMV infection, qPCR and ELISA)",IFN-β responses in NOD2 KD cells (IFN-β; treatment in NOD2 KD cells),plaque numbers (human CMV (HCMV)),induction of NOD2 expression (NOD2 mRNA; 12 h),induction of NOD2 expression (NOD2 mRNA; 72 h) [fold]
"C[C@H](N)C(=O)N[C@H](CCC(=O)NC(CCCC(N)C(=O)O)C(=O)O)C(=O)O (stereo partly drawn) [tri-DAP, L-Ala-γ-D-Glu-mDAP]",enhanced,increased,can initiate independent IFN-β responses,significant reduction,,
"CC(=O)N[C@H]1C(O)O[C@H](CO)[C@@H](O)[C@@H]1O[C@H](C)C(=O)N[C@@H](C)C(=O)N[C@H](CCC(=O)O)C(N)=O (mixture of isomers) [MDP, muramyl dipeptide]",,,,,two fold,1400
